Type in all cases: cell-based
Assay [1] deals with Streptococcus pneumoniae l/l. The assay can be described thus: MIC, standard microdilution technique. The procedure, abridged: (§1)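 Antibacterial activity was determined by broth microdilution following the NCCLS approved standard M7-A5 (5th edition, 2000) for dilution susceptibility testing of aerobically growing bacteria.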
(Broth dilution looks for growth in wells or tubes with falling amounts of substance.)

Assay [2] relates to Streptococcus pneumoniae 12288. The assay can be described thus: MIC, standard microdilution technique. In outline:
as §1

Assay [3] has as its system Staphylococcus aureus ATCC 29213. The assay can be described thus: MIC, standard microdilution technique. The procedure, abridged:
as §1

Assay [4] has as its system Streptococcus pneumoniae SL199T. The assay can be described thus: MIC, standard microdilution technique. The procedure, abridged: as §1
In assay [5] the test system is Staphylococcus aureus 1086. As to the kind of experiment: MIC, standard microdilution technique. In outline:
as §1

Assay [6] has as its system Streptococcus pneumoniae ¼. As to the kind of experiment: MIC, standard microdilution technique. In outline: as §1
Assay [7] concerns Escherichia coli ATCC 25922. The assay can be described thus: MIC, standard microdilution technique. In outline: as §1
The test system of assay [8] is Staphylococcus aureus 745. As to the kind of experiment: MIC, standard microdilution technique. The procedure, abridged:
as §1

The subject of assay [9] is Haemophilus influenzae QK12/87. The assay can be described thus: MIC, standard agar dilution method using HTM medium. The procedure, abridged:
(§2)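 MICs were read following the NCCLS approved standard (M7-A5) for dilution susceptibility testing of aerobically growing bacteria. Compounds were tested against Haemophilus influenzae.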
(Agar dilution tests growth on a series of plates holding different concentrations.)

Assay [10] concerns Haemophilus influenzae QK50. Described as above. The procedure, abridged: as §2
The test system of assay [11] is Haemophilus influenzae 12214. Described as above. The procedure, abridged: as §2
In assay [12] the test system is Haemophilus influenzae B1501. Described as above. In outline:
as §2

The structures appear in SMILES notation. ≈ marks a conversion by molar mass, not a printed value.

The text below walks through data of patent US6995143B2, “Macrolides with antibacterial activity” (Basilea Pharmaceutica AG, priority 2002, dated 2006).

Take `CC[C@H]1OC(=O)[C@H](C)C(=O)[C@H](C)[C@@H](O[C@@H]2O[C@H](C)C[C@H](N(C)C)[C@H]2O)[C@](C)(OC)C[C@@H](C)C(=O)[C@H](C)[C@H]2[C@@H](SCC(=O)NCc3ncc[nH]3)C(=O)O[C@@]21C` [Example 35]: the “minimum inhibitory concentration (MIC), Strain E” value in [1] was “<=0.06 μg/ml”. In [2], the “minimum inhibitory concentration (MIC), Strain H” value is over 32 µg/mL. Besides, the “minimum inhibitory concentration (MIC), Strain A” value in assay [3] was determined as 8 µg/mL (≈ 10.2 µM). In addition, the “minimum inhibitory concentration (MIC), Strain G” value in [4] worked out at 16 µg/mL (≈ 20.5 µM). Further, the “minimum inhibitory concentration (MIC), Strain B” value in assay [5] worked out at 8 µg/mL (≈ 10.2 µM). Moreover, the “minimum inhibitory concentration (MIC), Strain F” value in [6] was over 32 µg/mL. Besides, the “minimum inhibitory concentration (MIC), Strain D” value in [7] was over 32 µg/mL. The “minimum inhibitory concentration (MIC), Strain C” value in assay [8] is over 32 µg/mL. Further, the “minimum inhibitory concentration (MIC), Strain I” value in assay [9] stood at 16 µg/mL (≈ 20.5 µM). The “minimum inhibitory concentration (MIC), Strain L” value in assay [10] was 16 µg/mL (≈ 20.5 µM). The “minimum inhibitory concentration (MIC), Strain K” value in [11] was 32 µg/mL (≈ 41 µM). In assay [12], the “minimum inhibitory concentration (MIC), Strain M” value is 16 µg/mL (≈ 20.5 µM).

Turning to `CC[C@H]1OC(=O)[C@H](C)C(=O)[C@H](C)[C@@H](O[C@@H]2O[C@H](C)C[C@H](N(C)C)[C@H]2O)[C@](C)(OC)C[C@@H](C)C(=O)[C@H](C)[C@H]2[C@@H](SCC(=O)Nc3ccc4ccccc4n3)C(=O)O[C@@]21C` [Example 37], in assay [1], the “minimum inhibitory concentration (MIC), Strain E” value was “<=0.06 μg/ml”. Also, the “minimum inhibitory concentration (MIC), Strain H” value in assay [2] is over 32 µg/mL. In addition, the “minimum inhibitory concentration (MIC), Strain A” value in [3] worked out at 0.125 µg/mL (≈ 0.151 µM). In assay [4], the “minimum inhibitory concentration (MIC), Strain G” value is over 32 µg/mL. For the same compound, the “minimum inhibitory concentration (MIC), Strain B” value in assay [5] is reported as “<=0.06 μg/ml”. Further, the “minimum inhibitory concentration (MIC), Strain F” value in assay [6] was determined as 4 µg/mL (≈ 4.83 µM). In addition, the “minimum inhibitory concentration (MIC), Strain D” value in assay [7] is over 32 µg/mL. In addition, the “minimum inhibitory concentration (MIC), Strain C” value in assay [8] is over 32 µg/mL. Besides, in [9], the “minimum inhibitory concentration (MIC), Strain I” value turned out to be 8 µg/mL (≈ 9.66 µM). For the same compound, in assay [10], the “minimum inhibitory concentration (MIC), Strain L” value is 8 µg/mL (≈ 9.66 µM). In assay [11], the “minimum inhibitory concentration (MIC), Strain K” value came to 16 µg/mL (≈ 19.3 µM). For the same compound, the “minimum inhibitory concentration (MIC), Strain M” value in assay [12] stood at 8 µg/mL (≈ 9.66 µM).

For the compound `CC[C@H]1OC(=O)[C@H](C)C(=O)[C@H](C)[C@@H](O[C@@H]2O[C@H](C)C[C@H](N(C)C)[C@H]2O)[C@](C)(OC)C[C@@H](C)C(=O)[C@H](C)[C@H]2[C@@H](SCC(=O)Nc3ccc4ncccc4c3)C(=O)O[C@@]21C` [Example 38], the “minimum inhibitory concentration (MIC), Strain E” value in assay [1] was “<=0.06 μg/ml”. In [2], the “minimum inhibitory concentration (MIC), Strain H” value was found to be 32 µg/mL (≈ 38.6 µM). Also, the “minimum inhibitory concentration (MIC), Strain A” value in assay [3] is listed as “<=0.06 μg/ml”. The “minimum inhibitory concentration (MIC), Strain G” value in [4] came out at 8 µg/mL (≈ 9.66 µM). The “minimum inhibitory concentration (MIC), Strain B” value in assay [5] is recorded as “<=0.06 μg/ml”. In addition, the “minimum inhibitory concentration (MIC), Strain F” value in assay [6] stood at 4 µg/mL (≈ 4.83 µM). The “minimum inhibitory concentration (MIC), Strain D” value in assay [7] is over 32 µg/mL. In addition, the “minimum inhibitory concentration (MIC), Strain C” value in assay [8] was over 32 µg/mL. The “minimum inhibitory concentration (MIC), Strain I” value in assay [9] turned out to be 8 µg/mL (≈ 9.66 µM). Besides, the “minimum inhibitory concentration (MIC), Strain L” value in [10] is 16 µg/mL (≈ 19.3 µM). Besides, the “minimum inhibitory concentration (MIC), Strain K” value in [11] amounted to 16 µg/mL (≈ 19.3 µM). In [12], the “minimum inhibitory concentration (MIC), Strain M” value is 8 µg/mL (≈ 9.66 µM).

For `CC[C@H]1OC(=O)[C@H](C)C(=O)[C@H](C)[C@@H](O[C@@H]2O[C@H](C)C[C@H](N(C)C)[C@H]2O)[C@](C)(OC)C[C@@H](C)C(=O)[C@H](C)[C@H]2[C@@H](SCC(=O)Nc3cnc4ccccc4c3)C(=O)O[C@@]21C` [Example 39], in assay [1], the “minimum inhibitory concentration (MIC), Strain E” value is “<=0.06 μg/ml”. Besides, in [2], the “minimum inhibitory concentration (MIC), Strain H” value was 32 µg/mL (≈ 38.6 µM). Besides, the “minimum inhibitory concentration (MIC), Strain A” value in assay [3] is on record as “<=0.06 μg/ml”. Also, in assay [4], the “minimum inhibitory concentration (MIC), Strain G” value was 8 µg/mL (≈ 9.66 µM). Further, the “minimum inhibitory concentration (MIC), Strain B” value in assay [5] is listed as “<=0.06 μg/ml”. Moreover, the “minimum inhibitory concentration (MIC), Strain F” value in [6] came to 32 µg/mL (≈ 38.6 µM). Further, the “minimum inhibitory concentration (MIC), Strain D” value in assay [7] is over 32 µg/mL. Further, the “minimum inhibitory concentration (MIC), Strain C” value in assay [8] was over 32 µg/mL. Also, in assay [9], the “minimum inhibitory concentration (MIC), Strain I” value stood at 16 µg/mL (≈ 19.3 µM). For the same compound, the “minimum inhibitory concentration (MIC), Strain L” value in assay [10] stood at 16 µg/mL (≈ 19.3 µM). Also, the “minimum inhibitory concentration (MIC), Strain K” value in assay [11] is 16 µg/mL (≈ 19.3 µM). Moreover, the “minimum inhibitory concentration (MIC), Strain M” value in [12] is 8 µg/mL (≈ 9.66 µM).
